US9435786B2, “Method for determining differentiation level of pluripotent stem cells” (HAMAMATSU PHOTONICS K.K., priority 2012, dated 2016)

Columns and labels:
Assay type in all cases: cell-based
[1] = system: 253G1 iPS cell line derived from a human adult fibroblast; experiment: Flatness of cell surface in a whole visual field, reflection quantitative phase microscope (Example 1); conditions: 12.5 μM retinoic acid, cultured another 4 days
Protocol: Onto an antireflectively coated glass bottom dish with 35 mm diameter, a 253G1 iPS cell line derived from a human adult fibroblast was seeded at 10 to 20 colonies/dish and cultured on feeder using a Primate ES Medium (manufactured by ReproCELL Incorporated, a commercial name: RCHEMD001) containing 4 ng/mL human basic FGF in the final concentration. The size of one colony was around 200 μn. As the feeder cells, mouse lung fibroblasts were used. The cells were cultured until the third day after the seeding. The medium was replaced once a day. […]
The shape of the cells was observed using a reflection quantitative phase microscope. […]
The bottom surface and surface shapes of the cell were extracted as follows. By using a reflection quantitative phase microscope, three-dimensional data for the cells in a 60 μm×80 μm visual field were obtained every 0.125 μm in the horizontal direction and every 0.32 μm in the vertical direction, and from the obtained data, tomogram images were created. […] From the obtained bottom surfaces and surface shapes, the height of the surface of the cells was measured. The flatness was calculated as a standard deviation of height of the surface of the cells which was standardized with a mean value of height of the surface of the cells, and a statistical processing was done.

[2] = system: 253G1 iPS cell line derived from a human adult fibroblast; experiment: Flatness per ROI as standard deviation of height standardized with mean height (Example 2); conditions: ROI unit, 12.5 μM retinoic acid
Protocol: Onto an antireflectively coated glass bottom dish with 35 mm diameter, a 253G1 iPS cell line derived from a human adult fibroblast was seeded at 10 to 20 colonies/dish and cultured on feeder using a Primate ES Medium (manufactured by ReproCELL Incorporated, a commercial name: RCHEMD001) containing 4 ng/mL human basic FGF in the final concentration. The size of one colony was around 200 μn. As the feeder cells, mouse lung fibroblasts were used. The cells were cultured until the third day after the seeding. The medium was replaced once a day.
A sample of the iPS cells for differentiation, the medium of which was replaced with a Primate ES Medium containing 4 ng/mL human basic FGF and 12.5 μM retinoic acid in the final concentration on the second day after the seeding, was cultured for another 4 days. Retinoic acid is generally used as a reagent for inducing differentiation. In addition, for a control of differentiated cells, MCF7 cells were used which were human breast cancer-derived epithelial cells. The MCF7 cells were seeded at 20% cell density and cultured for 3 days to be approximately confluent using 10% FBS-containing DMEM medium. In each culture system except the MCF7 cell culture system, the medium was replaced once a day.
As to 3 colonies of the undifferentiated iPS cells and 3 colonies of the iPS cells cultured by supplementing retinoic acid, 7 to 15 visual fields around the center of each colony were analyzed. Each visual field was partitioned into six ROIs, and the bottom surfaces and surface shapes of the cells were extracted for each ROI unit to measure the height of the surface of the cells under the same condition as that of Example 1. The size of the ROI was […]×23 μm. The flatness was calculated as a standard deviation of height of the surface of the cells which was standardized with a mean value of height of the surface of the cells, and a statistical processing was done to perform Student's t-test.

[3] = system: 253G1 iPS cell line derived from a human adult fibroblast; experiment: Variogram analysis, MSHD standardized with mean height, per ROI (Example 3); conditions: Δr 15 μm, ROI unit
From the text: The flatness may also be a value of MSHD in a predetermined horizontal distance. When a surface shape Z (x, y) is given and two points, A (x1, y1) and B (x2, y2), which are apart from each other at a Δr in the horizontal direction on the Z, are selected, the MSHD can be represented by formula (I). MSHD(Δr)=<(z(x1,y1)−z(x2,y2))^2> (I)
wherein z (x1, y1) is a height of a surface of the cell at A, z (x2, y2) is a height of a surface of the cell at B, and < > is an ensemble average. In addition, (x1, y1) and (x2, y2) are in any combination that satisfies formula (II). Δr=((x1−x2)^2+(y1−y2)^2)^1/2 (II)
Under the same condition as that of Example 2, three-dimensional data for the undifferentiated iPS cells and the iPS cells cultured by supplementing retinoic acid were obtained every 0.125 μm in the horizontal direction and every 0.32 μm in the vertical direction, and from the obtained data, tomogram images were created. From the created tomogram images, the bottom surfaces and surface shapes of the cells were extracted and a variogram analysis was performed. Specifically, a value of MSHD when the Δr was within a range of 0.25 μm to 15 μm was calculated from formula (I) as described above, and standardized with a mean value of height of the surface of the cells.
Next, a value of MSHD when the Δr was […] was calculated and standardized with a mean value of height of the surface of the cells to calculate the flatness. The result was shown as a logarithmic graph (FIG. 6). In a statistical analysis, the common logarithm of the result was calculated to perform Student's t-test (Table 3).

[4] = system: 253G1 iPS cell line derived from a human adult fibroblast; experiment: Slope of variogram as flatness, per ROI (Example 4); conditions: Δr 5 μm to 15 μm, ROI unit
From the text: The flatness may also be a slope of a variogram in a horizontal distance between the predetermined two points. In this case, as the numerical value is smaller, the cell is flatter and less differentiated, and as the numerical value is larger, the cell is less flat and is more differentiated. The horizontal distance between the predetermined two points is not limited in particular, as long as the distance is between points enough to definitely determine the difference between undifferentiated pluripotent stem cell and differentiated cell. The relationship between a mean square height difference and a slope of a variogram can be represented by formula (III). MSHD(Δr)∝Δr^S (III)
wherein S is a slope of a graph which represents a variogram in a double logarithmic manner. It should be noted that because of the nature of a log-log graph, even when constantly multiplying the abscissa Δr or ordinate MSHD through the standardization, the graph is only translated parallelly and the slope S is constant with respect to the constantly multiplied abscissa and ordinate. In addition, as shown in the above-mentioned document of Glenn, N. et al., it is a known mathematical approach to represent a variogram by log-log graph and evaluate the statistical nature of the surface shape by slope S.
Under the same condition as that of Example 3, a variogram analysis was performed using a value of MSHD which was standardized with a mean value of height of the surface of the cells, and a slope of the variogram when the Δr was within a range of 5 μm to 15 μm was calculated as the flatness, using formula (III) as described above. Then, a statistical analysis was done to perform Student's t-test.

[5] = system: 253G1 iPS cell line derived from a human adult fibroblast; experiment: Flatness as MSHD per visual field unit (Example 6)
Protocol: By using images shot using each sample in Example 2 of one colony (15 visual fields) for the undifferentiated iPS cells and 2 colonies (11 and 13 visual fields, respectively) for the iPS cells cultured by supplementing retinoic acid, the height of the surface of the cells for each visual field unit was measured using a reflection quantitative phase microscope under the same condition as that of Example 2. A value of MSHD when the Δr was 5 μm was calculated and standardized with a mean value of height of the surface of the cells, then the common logarithm was taken and the flatness was calculated. A statistical analysis was done to perform Student's t-test.

CC1=C(/C=C/C(C)=C/C=C/C(C)=C/C(=O)O)C(C)(C)CCC1 [Retinoic acid, retinoic acid]
Mean value of height of the surface of the cells ([1]; 60 μm×80 μm visual field): 6.25 μm
Flatness (standard deviation of height standardized with mean height) ([1]; iPS cells, larger value = less flat): 18.9%
Flatness (standard deviation of height standardized with mean height) ([2]; colony RA-1): 0.130
Flatness (standard deviation of height standardized with mean height) ([2]; colony RA-2): 0.107
Flatness (standard deviation of height standardized with mean height) ([2]; colony RA-3): 0.123
Flatness (common logarithm of MSHD standardized with mean height) ([3]; colony RA-1): −1.392
Flatness (common logarithm of MSHD standardized with mean height) ([3]; colony RA-2): −1.517
Flatness (common logarithm of MSHD standardized with mean height) ([3]; colony RA-3): −1.425
Flatness (slope of variogram) ([4]; colony RA-1): 0.848
Flatness (slope of variogram) ([4]; colony RA-2): 0.744
Flatness (slope of variogram) ([4]; colony RA-3): 0.880
Flatness (common logarithm of MSHD standardized with mean height) ([5]; colony RA-1, Δr 5 μm): −1.657
Flatness (common logarithm of MSHD standardized with mean height) ([5]; colony RA-2, Δr 5 μm): −1.796
